We go through one compound from PMC11601441 (bioRxiv, 2024).

Type in all cases: cell-based
Experiment [1] addresses mouse GPR17 (mGPR17) (Mus musculus, UniProt Q6NS65). Briefly: calcium flux in GLUTag cells expressing mGPR17. (In general: A change in cytosolic calcium serves as a functional read-out for many receptors and channels.)
For experiment [2], the target named is human GPR17 long isoform (hGPR17L) (Homo sapiens, UniProt Q13304).
For experiment [3], the target named is human GPR17 long isoform V96M (hGPR17L-V96M) (Homo sapiens, UniProt Q13304, V96M). Briefly: calcium flux in GLUTag cells expressing hGPR17L-V96M.
Chain of human GPR17 long isoform V96M (hGPR17L-V96M) (Q13304 whole entry V96M, canonical isoform): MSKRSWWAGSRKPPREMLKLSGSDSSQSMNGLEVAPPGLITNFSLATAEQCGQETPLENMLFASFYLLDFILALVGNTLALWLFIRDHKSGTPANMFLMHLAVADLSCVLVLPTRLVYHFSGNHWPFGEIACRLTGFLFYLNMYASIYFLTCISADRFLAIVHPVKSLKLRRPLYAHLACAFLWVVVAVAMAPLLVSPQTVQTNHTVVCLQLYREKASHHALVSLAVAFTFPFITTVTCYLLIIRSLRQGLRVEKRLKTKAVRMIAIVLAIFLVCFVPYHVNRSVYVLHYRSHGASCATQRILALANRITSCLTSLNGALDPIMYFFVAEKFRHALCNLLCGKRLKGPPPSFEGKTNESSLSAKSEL

Chain of human GPR17 long isoform (hGPR17L) (Q13304 whole entry, canonical isoform): as the sequence (Q13304 whole entry V96M, canonical isoform) above, with M96V counted along it
Chain of mouse GPR17 (mGPR17) (Q6NS65 whole entry, canonical isoform): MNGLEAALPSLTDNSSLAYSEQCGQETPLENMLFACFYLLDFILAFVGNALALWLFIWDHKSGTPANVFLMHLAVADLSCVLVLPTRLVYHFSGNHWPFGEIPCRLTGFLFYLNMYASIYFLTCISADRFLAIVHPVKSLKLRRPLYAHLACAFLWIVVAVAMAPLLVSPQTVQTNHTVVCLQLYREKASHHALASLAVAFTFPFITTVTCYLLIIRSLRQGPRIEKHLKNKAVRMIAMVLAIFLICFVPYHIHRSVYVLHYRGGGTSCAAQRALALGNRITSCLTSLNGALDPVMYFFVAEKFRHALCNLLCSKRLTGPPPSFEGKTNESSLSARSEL

Broadly, the EC50 is the midpoint of the concentration-response curve. In general, IC50 refers to the point on the concentration scale where inhibition reaches its midpoint. A low value points to greater potency. As for `O=C(O)CCc1c(C(=O)O)[nH]c2cc(Cl)cc(Cl)c12` [MDL29,951], the EC50 in experiment [1] was 680 nM; in experiment [3] it was 580 nM. The IC50 in experiment [2] was found to be 29 nM.
